Laboratory results from the supplement of paper PMC10627819.

How the values were obtained:
B. subtilis 168 [1] = test: fitness (endpoint OD595 vs no drug) (fraction); higher = more growth
How it was run: (§1)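 Bacterial growth was followed in 384-well plates seeded at OD595 0.01, with 30 µl per well, or 55 µl for S. pneumoniae, in TSB, LB Lennox or CY at 37 °C. OD595 was read every 30 min for 14 h, and each reading had the first reading subtracted as background. Fitness is the background-corrected optical density at entry into stationary phase divided by the robust mean of the no-drug control wells. This ratio is capped at 1.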

S. pneumoniae D39V [2] = test: as above
How it was run: as §1

S. aureus DSM 20231 [3] = test: as above
How it was run: as §1

B. subtilis 168 [4] = test: Bliss interaction score (quartile over a dose matrix) (fitness difference); higher = more antagonism (negative = synergy)
How it was run: (§2)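 Each plate was normalised to the robust mean of its own no-drug wells, using OD595 at entry into stationary phase, with values capped at 1. This normalised growth is the fitness value. The Bliss score is the difference between observed and product-expected fitness, with single-drug fitness inferred from the combination data and quartiles taken over technical, biological and donor/recipient replicates.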

S. pneumoniae D39V [5] = test: as above
How it was run: as §2

S. aureus DSM 20231 [6] = test: as above
How it was run: as §2

S. aureus Newman = test: as above
How it was run: as §2
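Wherever Bliss interaction score (quartile over a dose matrix) is given: first quartile when negative (synergy) and third quartile when positive (antagonism).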

CCC[C@@H]1C[C@@H](C(=O)N[C@@H]([C@H]2O[C@H](SC)[C@H](O)[C@@H](O)[C@H]2O)[C@@H](C)O)N(C)C1 [Lincomycin] + CN[C@@H]1[C@H](O)[C@H](NC)[C@H]2O[C@@]3(O)C(=O)C[C@@H](C)O[C@H]3O[C@@H]2[C@H]1O [Spectinomycin]
fitness
Conditions	partner 2 µg/mL	partner 4 µg/mL	partner 8 µg/mL	partner 16 µg/mL
B. subtilis 168 [1], first compound 0.1 µg/mL	0.923	0.923	0.849	–
B. subtilis 168 [1], first compound 0.2 µg/mL	0.937	0.929	0.847	–
B. subtilis 168 [1], first compound 0.4 µg/mL	0.907	0.859	0.861	–
S. aureus DSM 20231 [3], first compound 0.1 µg/mL	–	0.819	0.732	0.566
S. aureus DSM 20231 [3], first compound 0.2 µg/mL	–	0.581	0.54	0.351
S. aureus DSM 20231 [3], first compound 0.4 µg/mL	–	–	–	0.122
S. pneumoniae D39V [2], first compound 0.215 µg/mL	–	0.777	0.787	0.721
S. pneumoniae D39V [2], first compound 0.43 µg/mL	–	0.688	0.713	0.616
S. pneumoniae D39V [2], first compound 0.86 µg/mL	–	0.268	0.286	0.158

fitness, one replicate
Conditions	first compound 0.1 µg/mL	first compound 0.2 µg/mL	first compound 0.4 µg/mL	first compound 0.8 µg/mL
S. aureus DSM 20231 [3], partner 32 µg/mL	0.377	0.176	0.0758	–
S. aureus DSM 20231 [3], partner 64 µg/mL	0.0561	0.042	0.0347	–
S. pneumoniae D39V [2], partner 4 µg/mL	–	0.777	0.659	0.412
S. pneumoniae D39V [2], partner 8 µg/mL	–	0.752	0.63	0.35

Conditions	Bliss interaction score
B. subtilis 168 [4]	-0.0786
S. aureus DSM 20231 [6]	-0.175
S. aureus Newman	-0.195
S. pneumoniae D39V [5]	-0.0914

CCC[C@@H]1C[C@@H](C(=O)N[C@@H]([C@H]2O[C@H](SC)[C@H](O)[C@@H](O)[C@H]2O)[C@@H](C)O)N(C)C1 [Lincomycin] + COc1c(N2C[C@@H]3CCCN[C@@H]3C2)c(F)cc2c(=O)c(C(=O)O)cn(C3CC3)c12 [Moxifloxacin]
fitness, one replicate
Conditions	first compound 0.1 µg/mL	first compound 0.2 µg/mL	first compound 0.4 µg/mL
B. subtilis 168 [1], partner 0.0312 µg/mL	0.0564	0.039	–
B. subtilis 168 [1], partner 0.0625 µg/mL	0.0916	0.06	–
B. subtilis 168 [1], partner 0.125 µg/mL	0.0846	0.0751	–
S. aureus DSM 20231 [3], partner 0.06 µg/mL	0.661	0.677	0.562
S. aureus DSM 20231 [3], partner 0.12 µg/mL	0.498	0.527	0.448

Conditions	fitness
B. subtilis 168 [1], first compound 0.1 µg/mL, partner 2 µg/mL	0.0333
B. subtilis 168 [1], first compound 0.1 µg/mL, partner 4 µg/mL	0.0228
B. subtilis 168 [1], first compound 0.1 µg/mL, partner 8 µg/mL	0.0229
B. subtilis 168 [1], first compound 0.2 µg/mL, partner 2 µg/mL	0.0297
B. subtilis 168 [1], first compound 0.2 µg/mL, partner 4 µg/mL	0.0322
B. subtilis 168 [1], first compound 0.2 µg/mL, partner 8 µg/mL	0.0239
B. subtilis 168 [1], first compound 0.4 µg/mL, partner 0.0312 µg/mL	0.0344
B. subtilis 168 [1], first compound 0.4 µg/mL, partner 0.0625 µg/mL	0.036
B. subtilis 168 [1], first compound 0.4 µg/mL, partner 0.125 µg/mL	0.0478
B. subtilis 168 [1], first compound 0.4 µg/mL, partner 2 µg/mL	0.0261
B. subtilis 168 [1], first compound 0.4 µg/mL, partner 4 µg/mL	0.0257
B. subtilis 168 [1], first compound 0.4 µg/mL, partner 8 µg/mL	0.0306
B. subtilis 168 [1], first compound 0.8 µg/mL, partner 0.0312 µg/mL	0.0429
B. subtilis 168 [1], first compound 0.8 µg/mL, partner 0.0625 µg/mL	0.049
B. subtilis 168 [1], first compound 0.8 µg/mL, partner 0.125 µg/mL	0.0451
B. subtilis 168 [1], first compound 1.6 µg/mL, partner 0.0312 µg/mL	0.0535
B. subtilis 168 [1], first compound 1.6 µg/mL, partner 0.0625 µg/mL	0.0507
B. subtilis 168 [1], first compound 1.6 µg/mL, partner 0.125 µg/mL	0.0559
S. aureus DSM 20231 [3], first compound 0.1 µg/mL, partner 0.0075 µg/mL	0.823
S. aureus DSM 20231 [3], first compound 0.1 µg/mL, partner 0.015 µg/mL	0.765
S. aureus DSM 20231 [3], first compound 0.1 µg/mL, partner 0.03 µg/mL	0.671
S. aureus DSM 20231 [3], first compound 0.2 µg/mL, partner 0.0075 µg/mL	0.737
S. aureus DSM 20231 [3], first compound 0.2 µg/mL, partner 0.015 µg/mL	0.715
S. aureus DSM 20231 [3], first compound 0.2 µg/mL, partner 0.03 µg/mL	0.689
S. aureus DSM 20231 [3], first compound 0.4 µg/mL, partner 0.0075 µg/mL	0.301
S. aureus DSM 20231 [3], first compound 0.4 µg/mL, partner 0.015 µg/mL	0.278
S. aureus DSM 20231 [3], first compound 0.4 µg/mL, partner 0.03 µg/mL	0.359
S. pneumoniae D39V [2], first compound 0.2 µg/mL, partner 0.005 µg/mL	0.749
S. pneumoniae D39V [2], first compound 0.2 µg/mL, partner 0.01 µg/mL	0.829
S. pneumoniae D39V [2], first compound 0.2 µg/mL, partner 0.02 µg/mL	0.757
S. pneumoniae D39V [2], first compound 0.215 µg/mL, partner 0.0037 µg/mL	0.742
S. pneumoniae D39V [2], first compound 0.215 µg/mL, partner 0.0075 µg/mL	0.769
S. pneumoniae D39V [2], first compound 0.215 µg/mL, partner 0.015 µg/mL	0.751
S. pneumoniae D39V [2], first compound 0.4 µg/mL, partner 0.005 µg/mL	0.675
S. pneumoniae D39V [2], first compound 0.4 µg/mL, partner 0.01 µg/mL	0.704
S. pneumoniae D39V [2], first compound 0.4 µg/mL, partner 0.02 µg/mL	0.653
S. pneumoniae D39V [2], first compound 0.43 µg/mL, partner 0.0037 µg/mL	0.629
S. pneumoniae D39V [2], first compound 0.43 µg/mL, partner 0.0075 µg/mL	0.651
S. pneumoniae D39V [2], first compound 0.43 µg/mL, partner 0.015 µg/mL	0.677
S. pneumoniae D39V [2], first compound 0.86 µg/mL, partner 0.0037 µg/mL	0.34
S. pneumoniae D39V [2], first compound 0.86 µg/mL, partner 0.0075 µg/mL	0.339
S. pneumoniae D39V [2], first compound 0.86 µg/mL, partner 0.015 µg/mL	0.297

Conditions	Bliss interaction score
B. subtilis 168 [4]	-0.0143
S. aureus DSM 20231 [6]	0.124
S. aureus Newman	0.0565
S. pneumoniae D39V [5]	0.0862
